The values that follow come from patent publication US4762823A, “Nucleosides of 5-monofluoromethyluracil and 5-difluoromethyluracil” (Sloan-Kettering Institute for Cancer Research, priority 1985, dated 1988).

The conditions of data set [1]: neutral aqueous media; Mertes, et al.; cited from earlier work.
The test system of the next data set is herpes simplex. Particulars: cited from earlier work.
For the next data set, the system named is many tumor systems. Particulars: Heidelberger, 1965; 1970; cited from earlier work.
The conditions of data set [2]: cited from earlier work.
The test system of a further data set is HSV-1. In words: Antiherpes activity, inhibition of cytopathic effect (CPE), HSV-1. It counts as cell-based. Particulars: Human alphaherpesvirus 1, 48 h, human foreskin monolayers, mean IC of high and low virus inocula, CPE score lowered by 10 scoring units vs control, 2 days, read-out: Inhibitory Concentration (μM) HSV-1. The procedure: (§1) Each of the nucleosides was initially dissolved in a diluent containing 60% propylene glycol and 10% EtOH; subsequent dilutions used maintenance culture medium. Agents were assessed at tenfold dilutions with final concentrations ranging from 10,000 to 0.01 micromolar. Confluent human foreskin monolayers were maintained in 96-well microtiter plates using Eagle's Minimal Essential Medium supplemented with 2% fetal bovine serum, antibiotics and glutamine using standard methods.^40 Prior to virus inoculation, the medium was removed from each well and replaced with 100 μL of agent diluted in maintenance medium with differing concentrations in each horizontal row, beginning with the highest concentration in the upper row, with subsequent tenfold dilutions in the next rows and the last (control) row fed with agent-free maintenance medium. The virus inocula were then added, suspended in 100 μL of […] medium. A high-dose inoculum which induced nearly confluent (100%) cytopathic effect (CPE) two days later was added to the first five vertical columns of the plate (1-5) and, similarly, a low-dose inoculum inducing approximately 50% CPE in each well two days later was added to the next five vertical columns (6-10). To the last two columns, virus-free medium was added to serve as uninfected control wells in order to assess direct cellular cytotoxicity at each agent dilution. The plates were then incubated at 36.5° C. in 5% CO2 in air for two days, at which time they were read. The cytopathology of each well was read using an inverted microscope and scored from 0 to 4 (0=no CPE and 4=>95% CPE); for marginal or equivocal readings a+ or - is affixed to each score. […] The mean score of each five wells in a row receiving a given agent dilution and virus inoculum was then calculated and compared with an appropriate control row receiving no agent. […] When the value fell between two rows, simple arithmetic interpolation was done to calculate the agent concentrate at the point on a slope between the mean scores in the rows above and below this point. The IC values of each agent using the high and low virus inocula were then averaged yielding a final mean IC which was expressed as a micromolar drug concentration.
(Cytopathic effects are the visible damage that an infection or toxin causes in cultured cells.)

In another data set the test system is HSV-2. In words: Antiherpes activity, inhibition of cytopathic effect (CPE), HSV-2. It counts as cell-based. Particulars: Human alphaherpesvirus 2, 48 h, human foreskin monolayers, mean IC of high and low virus inocula, CPE score lowered by 10 scoring units vs control, 2 days, read-out: Inhibitory Concentration (μM) HSV-2. The procedure: as §1
A short description of data set [3]: Direct cellular cytotoxicity in uninfected control wells. It counts as cell-based, human. Particulars: foreskin cell monolayers; uninfected human foreskin monolayers; tenfold dilutions; 2 days; read-out: Toxic Concentration. The procedure:
as §1

For data set [4], the system named is human foreskin monolayers. The data set is described as above. Particulars: statement in words on Table 1. It counts as cell-based. The procedure: as §1
The test system of a further data set is herpes. In words: Antiherpes activity. The data set is classed as cell-based. The following applies: statement in words on Table 1. The procedure:
Each of the nucleosides was initially dissolved in a diluent containing 60% propylene glycol and 10% EtOH; subsequent dilutions used maintenance culture medium. Agents were assessed at tenfold dilutions with final concentrations ranging from 10,000 to 0.01 micromolar. […] The plates were then incubated at 36.5° C. in 5% CO2 in air for two days, at which time they were read. The cytopathology of each well was read using an inverted microscope and scored from 0 to 4 (0=no CPE and 4=>95% CPE); for marginal or equivocal readings a+ or - is affixed to each score. […] The mean score of each five wells in a row receiving a given agent dilution and virus inoculum was then calculated and compared with an appropriate control row receiving no agent. […] The IC values of each agent using the high and low virus inocula were then averaged yielding a final mean IC which was expressed as a micromolar drug concentration.

Consider `O=c1[nH]cc(C(F)F)c(=O)[nH]1` [5-Difluoromethyluracil], for which, in [1], the lability entry was “extremely labile in neutral aqueous media”.
Turning to `O=c1[nH]c(=O)n([C@H]2C[C@H](O)[C@@H](CO)O2)cc1C(F)(F)F` [F3 TDR, 1-(2'-deoxy-β-D-erythropentofuranosyl)-5-trifluoromethyluracil], in the data set on herpes simplex (Heidelberger, 1965, 1970), the “activity against herpes simplex” value is “has shown activity”. In addition, in the data set on herpes simplex (reported), the “antiherpetic (reported)” value is recorded as “antiherpetic”. For the same compound, in the data set on many tumor systems, the “activity against many tumor systems” value is “has shown activity”. The “cytotoxic (reported)” value in [2] was “very cytotoxic”.
`Cc1cn([C@@H]2O[C@H](CO)[C@@H](O)[C@@H]2F)c(=O)[nH]c1=O` [FMAU, 1-(2-Deoxy-2-fluoro-β-D-arabinofuranosyl)thymine, reference compound]: the IC (CPE score lowered by 10 units) was 0.1 µM in the data set on HSV-1 and 0.05 µM with HSV-2. In addition, the MCC at 48 h in data set [3] turned out to be 1 mM.
On the same counts, the results for `CC(=O)OC[C@H]1O[C@@H](n2cc(CF)c(=O)[nH]c2=O)[C@@H](F)[C@@H]1OC(C)=O` [R=CH2 F, R^1=Ac, X=F, 1-(3,5-Di-0-acetyl-2-deoxy-2-fluoro-β-D-arabinofuranosyl)-5-monofluoromethyluracil] are 2.46 µM, 5.19 µM and 1 mM.
For `CC(=O)OC[C@H]1O[C@@H](n2cc(CF)c(=O)[nH]c2=O)C[C@@H]1OC(C)=O` [R=CH2 F, R^1=Ac, X=H, 1-(3',5'-di-0-acetyl-β-D-erythropentofuranosyl)-5-monofluoromethyluracil] the same measures were over 100 µM, over 100 µM and 1 mM.
For `O=c1[nH]c(=O)n([C@@H]2O[C@H](CO)[C@@H](O)[C@@H]2F)cc1CF` [R=CH2 F, R^1=H, X=F, 1-(2'-Deoxy-2'-fluoro-β-D-arabinofuranosyl)-5-monofluoromethyluracil], the IC (CPE score lowered by 10 units) was 0.21 µM in the data set with HSV-1 and 0.18 µM with HSV-2. Also, in data set [3], the MCC at 48 h was 1 mM.
For `O=c1[nH]c(=O)n([C@H]2C[C@H](O)[C@@H](CO)O2)cc1CF` [R=CH2 F, R^1=H, X=H, 2'-deoxy-5-monofluoromethyluridine] the same measures were over 100 µM, over 100 µM and 1 mM.
For `CC(=O)OC[C@H]1O[C@@H](n2cc(C)c(=O)[nH]c2=O)[C@@H](F)[C@@H]1OC(C)=O` [R=CH3, R^1=Ac, X=F, 1-(3,5-di-0-acetyl-2-deoxy-2-fluoro-β-D-arabinofuranosyl)thymine, reference compound] the same measures were 0.44 µM, 1.23 µM and 1 mM.
With `CC(=O)OC[C@H]1O[C@@H](n2cc(C(F)F)c(=O)[nH]c2=O)[C@@H](F)[C@@H]1OC(C)=O` [R=CHF2, R^1=Ac, X=F], the IC (CPE score lowered by 10 units) worked out at 0.71 µM with HSV-1 and 2.16 µM in the data set on HSV-2. For the same compound, the MCC at 48 h in data set [3] is 1 mM.
Consider `CC(=O)OC[C@H]1O[C@@H](n2cc(C(F)F)c(=O)[nH]c2=O)C[C@@H]1OC(C)=O` [R=CHF2, R^1=Ac, X=H, 1-(3',5'-Di-0-acetyl-2'-deoxy-β-D-erythropentofuranosyl)-5-difluoromethyluracil], for which the figures for the IC (CPE score lowered by 10 units) in the data set with HSV-1 and in the data set on HSV-2 were 17 µM and 25.1 µM, respectively. Further, in data set [3], the MCC at 48 h came to 1 mM. In addition, the cytotoxicity result in data set [4] is given as “without serious cytotoxicity”. For the same compound, the antiherpes activity result in the data set on herpes is listed as “very potent antiherpes activity”.
Consider `O=c1[nH]c(=O)n([C@@H]2O[C@H](CO)[C@@H](O)[C@@H]2F)cc1C(F)F` [R=CHF2, R^1=H, X=F, 1-(2'-Deoxy-2'-fluoro-β-D-arabinofuranosyl)-5-difluoromethyluracil], for which the IC (CPE score lowered by 10 units) with HSV-1 stood at 0.48 µM; with HSV-2, 1.04 µM. Besides, the MCC at 48 h in [3] turned out to be 1 mM.
As to `O=c1[nH]c(=O)n([C@H]2C[C@H](O)[C@@H](CO)O2)cc1C(F)F` [R=CHF2, R^1=H, X=H, 2'-Deoxy-5-difluoromethyluridine], the results for the IC (CPE score lowered by 10 units) with HSV-1 and in the data set on HSV-2 were 1.4 µM and 1.66 µM, respectively. For the same compound, in [3], the MCC at 48 h worked out at 1 mM. Further, the cytotoxicity result in data set [4] is listed as “without serious cytotoxicity”. Further, the antiherpes activity result in the data set on herpes is on record as “very potent antiherpes activity”.
